# Earlier results in patent US20170274058A1, “Cancer Stem Cell-Targeted Cancer Therapy” (priority 2006, published 2017).
# Counter-ions that a name gives are not always drawn.
# Test system: cancer stem cells, including leukemia stem cells
# Conditions: background statement, references in Table 1
row,Structure (SMILES),resistance of cancer stem cells to the therapy
1,"Nc1ccn([C@@H]2O[C@H](CO)[C@@H](O)[C@@H]2O)c(=O)n1 [Ara-C, cytarabine]",relatively resistant
2,"Cc1ccc(NC(=O)c2ccc(CN3CCN(C)CC3)cc2)cc1Nc1nccc(-c2cccnc2)n1 [Gleevec®, imatinib mesylate]",relatively resistant
3,CC(C)C[C@H](NC(=O)[C@H](Cc1ccccc1)NC(=O)c1cnccn1)B(O)O [Velcade®],relatively resistant
4,COc1cccc2c1C(=O)c1c(O)c3c(c(O)c1C2=O)C[C@@](O)(C(C)=O)C[C@@H]3O[C@H]1C[C@H](N)[C@H](O)[C@H](C)O1 [daunorubicin],relatively resistant
